Test system: MOLM-13 cells
Assay: Caspase cleavage assay (Caspase3, 7 activation)
Assay type: cell-based
Settings: Homo sapiens, 16 h treatment, caspase substrate Z-DEVD-R110, read-out: c* Concentration at which 50% of the maximum signal was achieved (caspase activation)
Description: Caspase3, 7 Activation. MOLM-13 cells (30,000 cells/well) were plated in black 96-well plates (Corning Cat. #3603) in 40 μL of RPMI media, and left in an incubator (37° C., 5% CO2) for up to 24 h. Cells were treated for 16 h with compounds or DMSO (control) at desired concentrations in 50 μL of media. Drugs were added in triplicate wells. Following exposure of cells to Hsp70 inhibitors, 50 μL of buffer containing 10 mM HEPES (pH 7.5), 2 mM EDTA, 0.1% CHAPS and the caspase substrate Z-DEVD-R110 at 25 μM was added to each well. Plates were incubated until the signal stabilized and then the fluorescence signal of each well was measured in an Analyst GT microplate reader. The percentage increase in apoptotic cells was calculated by comparison of the fluorescence reading obtained from treated versus control cells.

## COc1cccc(COc2nc(N3CCNC(=O)C3)ncc2Sc2ccc(C(N)=O)cc2)c1 [compound 319, 4-((4-((3-Methoxybenzyl)oxy)-2-(3-oxopiperazin-1-yl)pyrimidin-5-yl)thio)benzamide]
  EC50: ≥ 1200 nM

## COc1cccc(COc2nc(N3CCN(CC4CC4)C(=O)C3)ncc2Sc2ccc(C(N)=O)cc2)c1 [compound 321, 4-((2-(4-(Cyclopropylmethyl)-3-oxopiperazin-1-yl)-4-((3-methoxybenzyl)oxy)pyrimidin-5-yl)thio)benzamide]
  EC50: < 200 nM

## CN1CCN(c2ncc(Sc3ccc(N)nc3)c(OCc3cccc(N(C)C)c3)n2)CC1 [compound 153, 5-((4-((3-(Dimethylamino)benzyl)oxy)-2-(4-methylpiperazin-1-yl)pyrimidin-5-yl)thio)pyridin-2-amine]
  EC50: < 200 nM

## CC(C)c1cccc(COc2nc(N3CCN(C)CC3)ncc2Sc2ccc(C(N)=O)c(C(F)(F)F)c2)c1 [compound 331, 4-((4-((3-Isopropylbenzyl)oxy)-2-(4-methylpiperazin-1-yl)pyrimidin-5-yl)thio)-2-(trifluoromethyl)benzamide]
  EC50: ≥ 1200 nM

## CN1CCN(c2ncc(Sc3ccc(C(N)=O)c(Cl)c3)c(OCc3ccc(F)c(N)c3)n2)CC1 [compound 118, 4-((4-((3-Amino-4-fluorobenzyl)oxy)-2-(4-methylpiperazin-1-yl)pyrimidin-5-yl)thio)-2-chlorobenzamide]
  EC50: 400 to 1000 nM

## CN1CCN(c2ncc(Sc3ccc(N)nc3)c(OCc3ccc(F)c(C(F)(F)F)c3)n2)CC1 [compound 156, 5-((4-((4-Fluoro-3-(trifluoromethyl)benzyl)oxy)-2-(4-methylpiperazin-1-yl)pyrimidin-5-yl)thio)pyridin-2-amine]
  EC50: 200 to 400 nM

## CN1CCN(c2ncc(Sc3ccc(C(N)=O)c(Cl)c3)c(OCc3cccc(OC(F)F)c3)n2)CC1 [compound 121, 2-Chloro-4-((4-((3-(difluoromethoxy)benzyl)oxy)-2-(4-methylpiperazin-1-yl)pyrimidin-5-yl)thio)benzamide]
  EC50: 200 to 400 nM

## COc1cccc(COc2nc(N3CC4CC3CN4C)ncc2Sc2ccc(C(N)=O)cc2)c1 (centres unmarked) [compound 195]
  EC50: ≥ 1200 nM

## CN1CCN(c2ncc(Sc3ccc(C(=O)NCN4CCCCC4)cc3)c(OCc3ccccc3)n2)CC1 [compound 93, 4-((4-(Benzyloxy)-2-(4-methylpiperazin-1-yl)pyrimidin-5-yl)thio)-N-(piperidin-1-ylmethyl)benzamide]
  EC50: 1000 to 1200 nM

## CN1CCN(c2ncc(Sc3ccc(C(N)=O)cc3)c(OCc3ccccc3)n2)CC1 [compound 66, 4-((4-(Benzyloxy)-2-(4-methylpiperazin-1-yl)pyrimidin-5-yl)thio)benzamide]
  EC50: 200 to 400 nM

## COc1cccc(COc2nc(N3CCN([C@@H](C)C4CC4)CC3)ncc2Sc2ccc(C(N)=O)cc2)c1 [compound 315, (S)-4-((2-(4-(1-Cyclopropylethyl)piperazin-1-yl)-4-((3-methoxybenzyl)oxy)pyrimidin-5-yl)thio)benzamide]
  EC50: 1000 to 1200 nM

## CN1CCN(c2ncc(Sc3ccc(C(N)=O)c(Br)c3)c(OCc3ccccc3)n2)CC1 [compound 77, 4-((4-(Benzyloxy)-2-(4-methylpiperazin-1-yl)pyrimidin-5-yl)thio)-2-bromobenzamide]
  EC50: 200 to 400 nM

## CN1CCN(c2ncc(Sc3ccc(C(N)=O)cc3)c(OCCc3ccccc3)n2)CC1 [100h, 4-((2-(4-Methylpiperazin-1-yl)-4-phenethoxypyrimidin-5-yl)thio)benzamide]
  EC50: 200 to 400 nM

## COc1cc(COc2nc(N3CC[C@@H](N(C)C)C3)ncc2Sc2ccc(C(N)=O)c(Cl)c2)ccc1F [compound 212, (R)-2-Chloro-4-((2-(3-(dimethylamino)pyrrolidin-1-yl)-4-((4-fluoro-3-methoxybenzyl)oxy)pyrimidin-5-yl)thio)benzamide]
  EC50: < 200 nM

## CN1CCN(c2ncc(Sc3ccc(N)nc3)c(OCc3ccc(F)c(Br)c3)n2)CC1 [compound 155, 5-((4-((3-Bromo-4-fluorobenzyl)oxy)-2-(4-methylpiperazin-1-yl)pyrimidin-5-yl)thio)pyridin-2-amine]
  EC50: < 200 nM

## CN(C)c1cccc(COc2nc(N3CCN(C4CC4)CC3)ncc2Sc2ccc(C(N)=O)c(C(F)(F)F)c2)c1 [compound 341, 4-((2-(4-Cyclopropylpiperazin-1-yl)-4-((3-(dimethylamino)benzyl)oxy)pyrimidin-5-yl)thio)-2-(trifluoromethyl)benzamide]
  EC50: ≥ 1200 nM

## COc1cccc(COc2nc(N3CC(N(C)C)C3)ncc2Sc2ccc(C(N)=O)cc2)c1 [190m, 4-((2-(3-(Dimethylamino)azetidin-1-yl)-4-((3-methoxybenzyl)oxy)pyrimidin-5-yl)thio)benzamide]
  EC50: < 200 nM

## CN1CCN(c2ncc(Sc3ccc(C(N)=O)c(C(F)(F)F)c3)c(OCc3ccc(F)c(Br)c3)n2)CC1 [compound 134, 4-((4-((3-Bromo-4-fluorobenzyl)oxy)-2-(4-methylpiperazin-1-yl)pyrimidin-5-yl)thio)-2-(trifluoromethyl)benzamide]
  EC50: 200 to 400 nM

## COc1cccc(COc2nc(N3CCN(Cc4ncco4)CC3)ncc2Sc2ccc(C(N)=O)cc2)c1 [compound 323, 4-((4-((3-Methoxybenzyl)oxy)-2-(4-(oxazol-2-ylmethyl)piperazin-1-yl)pyrimidin-5-yl)thio)benzamide]
  EC50: < 200 nM

## CN1CCN(c2ncc(Sc3ccc(C(N)=O)cc3)c(OCc3cccc(C(N)=O)c3)n2)CC1 [100w, 3-(((5-((4-Carbamoylphenyl)thio)-2-(4-methylpiperazin-1-yl)pyrimidin-4-yl)oxy)methyl)benzamide]
  EC50: 400 to 1000 nM

## CNC(=O)c1ccc(Sc2cnc(N3CCN(C)CC3)nc2OCc2ccccc2)cc1 [compound 83, 4-((4-(Benzyloxy)-2-(4-methylpiperazin-1-yl)pyrimidin-5-yl)thio)-N-methylbenzamide]
  EC50: 400 to 1000 nM

## CN1CCN(c2ncc(Sc3ccc(C(N)=O)cc3)c(OCc3ccc(F)cc3)n2)CC1 [100m, 4-((4-((4-Fluorobenzyl)oxy)-2-(4-methylpiperazin-1-yl)pyrimidin-5-yl)thio)benzamide]
  EC50: 200 to 400 nM

## CN1CCN(c2ncc(Sc3ccc(C(N)=O)cc3)c(OCc3ccc(F)c(N(C)C)c3)n2)CC1 [100c, 4-((4-((3-(Dimethylamino)-4-fluorobenzyl)oxy)-2-(4-methylpiperazin-1-yl)pyrimidin-5-yl)thio)benzamide]
  EC50: < 200 nM

## CN1CCN(c2ncc(Sc3ccc(C(N)=O)c(Cl)c3)c(OCc3ccccc3)n2)CC1 [compound 78, 4-((4-(Benzyloxy)-2-(4-methylpiperazin-1-yl)pyrimidin-5-yl)thio)-2-chlorobenzamide]
  EC50: 400 to 1000 nM

## COc1ncc(Sc2cnc(N3CCN(C)CC3)nc2OCc2ccccc2)cc1N [compound 63, 5-((4-(Benzyloxy)-2-(4-methylpiperazin-1-yl)pyrimidin-5-yl)thio)-2-methoxypyridin-3-amine]
  EC50: ≥ 1200 nM

## COc1cccc(COc2nc(N3CCN(C)CC3)ncc2Sc2ccc(C(N)=O)cc2)c1 [100g, 4-((4-((3-Methoxybenzyl)oxy)-2-(4-methylpiperazin-1-yl)pyrimidin-5-yl)thio)benzamide]
  EC50: < 200 nM

## COc1cc(COc2nc(N3CCN(C)CC3)ncc2Sc2ccc(C(N)=O)c(Cl)c2)ccc1F [compound 111, 2-Chloro-4-((4-((4-fluoro-3-methoxybenzyl)oxy)-2-(4-methylpiperazin-1-yl)pyrimidin-5-yl)thio)benzamide]
  EC50: < 200 nM

## COc1cccc(COc2nc(N3CCN(C)C[C@H]3C)ncc2Sc2ccc(C(N)=O)cc2)c1 [compound 193, (R)-4-((2-(2,4-dimethylpiperazin-1-yl)-4-((3-methoxybenzyl)oxy)pyrimidin-5-yl)thio)benzamide]
  EC50: ≥ 1200 nM

## COc1cccc(COc2nc(N3CCN(C(C)C)CC3)ncc2Sc2ccc(C(N)=O)cc2)c1 [190b, 4-((2-(4-Isopropylpiperazin-1-yl)-4-((3-methoxybenzyl)oxy)pyrimidin-5-yl)thio)benzamide]
  EC50: 200 to 400 nM

## COc1cccc(COc2nc(N3CCN(C)CC3)ncc2Sc2ccc(C(N)=O)c(C(F)(F)F)c2)c1 [compound 136, 4-((4-((3-Methoxybenzyl)oxy)-2-(4-methylpiperazin-1-yl)pyrimidin-5-yl)thio)-2-(trifluoromethyl)benzamide]
  EC50: < 200 nM

## COc1cccc(COc2nc(N3CC[C@@H](N(C)C)C3)ncc2Sc2ccc(N)nc2)c1 [compound 375, (R)-5-((2-(3-(Dimethylamino)pyrrolidin-1-yl)-4-((3-methoxybenzyl)oxy)pyrimidin-5-yl)thio)pyridin-2-amine]
  EC50: < 200 nM

## CN1CCN(c2ncc(Sc3ccc(C(N)=O)cc3)c(OCc3cccc(I)c3)n2)CC1 [100s, 4-((4-((3-Iodobenzyl)oxy)-2-(4-methylpiperazin-1-yl)pyrimidin-5-yl)thio)benzamide]
  EC50: 200 to 400 nM

## CN1CCN(c2ncc(Sc3ccc(C(N)=O)cc3)c(OCc3ccnc(N)c3)n2)CC1 [100r, 4-((4-((2-Aminopyridin-4-yl)methoxy)-2-(4-methylpiperazin-1-yl)pyrimidin-5-yl)thio)benzamide]
  EC50: 1000 to 1200 nM

## CN1CCN(c2ncc(Sc3ccc(C(N)=O)c(Cl)c3)c(OCc3ccc(F)c(Cl)c3)n2)CC1 [compound 113, 2-Chloro-4-((4-((3-chloro-4-fluorobenzyl)oxy)-2-(4-methylpiperazin-1-yl)pyrimidin-5-yl)thio)benzamide]
  EC50: < 200 nM

## CN1CCN(c2ncc(Sc3ccc(C(N)=O)cc3)c(OCc3cccc(N(C)C)c3)n2)CC1 [100a, 4-((4-((3-(Dimethylamino)benzyl)oxy)-2-(4-methylpiperazin-1-yl)pyrimidin-5-yl)thio)benzamide]
  EC50: < 200 nM

From patent US10160729B2, “Hsp70 modulators and methods for making and using the same” (Memorial Sloan Kettering Cancer Center, priority 2014, dated 2018)
